In the assay the test system is B6C3F1 mice, B16 melanoma ip, median survival T/C. Kind of assay: NCI In Vivo Anticancer Drug Screen. Data for tumor model B16 Melanoma (intraperitoneal) in B6C3F1 mice. Particulars: endpoint: median survival time, schedule: Q01DX009 (ip), higher = longer survival. The essentials:
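Readout: survival or tumor size in treated mice relative to vehicle controls (T/C). Model uses transplantable tumors grown in mice.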

The mark [1] stands for this setting: dose: 2.5 mg/kg/injection, vehicle: saline with Tween-80.
Where [2] appears, read: dose: 5.0 mg/kg/injection, vehicle: saline with Tween-80.
[3] abbreviates: dose: 10.0 mg/kg/injection, vehicle: saline with Tween-80.
Where [4] appears, read: dose: 25.0 mg/kg/injection, vehicle: saline.
Setting [5] is: dose: 50.0 mg/kg/injection, vehicle: saline.
Setting [6] is: dose: 100.0 mg/kg/injection, vehicle: saline.
[7] abbreviates: dose: 200.0 mg/kg/injection, vehicle: saline.
Where [8] appears, read: dose: 400.0 mg/kg/injection, vehicle: saline.
[9] abbreviates: dose: 6.25 mg/kg/injection, vehicle: saline with Tween-80.
[10] abbreviates: dose: 12.5 mg/kg/injection, vehicle: saline with Tween-80.
The mark [11] stands for this setting: dose: 25.0 mg/kg/injection, vehicle: saline with Tween-80.
Where [12] appears, read: dose: 50.0 mg/kg/injection, vehicle: saline with Tween-80.

The structures appear in SMILES notation. Several values for one entry are separate records, joined by “and”; a condition that tells them apart may be missing. Equal entries are not always repeated. Inconclusive results and toxic doses are left out. Where a SMILES comes first, the peptide text is derived from it. [ ]: non-standard residue; d: D form. The star is where a group is joined. Cbz = O=C(OCc1ccccc1)*; Nva = CCC[CH](N)C(=O)O

For 15 compounds, T/C results are on record in PubChem BioAssay AID200 (DTP/NCI, 2004).

In the case of `O=C1C=C[C@H](O)[C@@]2(CO)O[C@@H]12`, the T/C is, setting by setting: (dose: 0.31 mg/kg/injection, vehicle: saline with Tween-80) 98 % of control; (dose: 0.62 mg/kg/injection, vehicle: saline with Tween-80) 100 % of control; (dose: 1.25 mg/kg/injection, vehicle: saline with Tween-80) 102 % of control; under setting [1], 109 % of control; under setting [2], 115 % of control and 93 % of control; under setting [3], 121 % of control.
Take `O=C(O)CCC(NC(=O)OCc1ccccc1)C(=O)NCC(=O)O` (stereo not drawn) (HELM PEPTIDE1{[O=C(OCc1ccccc1)[*:2]].[O=C(O)CCC(N[*:1])C(=O)[*:2]].G}$$$$V2.0): the T/C runs as follows: under setting [4], 102 % of control; under setting [5], 97 % of control; under setting [6], 107 % of control; under setting [7], 113 % of control; under setting [8], 112 % of control.
As to `CC1=C(C)C(=O)O[C@@H]([C@](C)(O)[C@]2(O)CC[C@@]3(O)[C@@H]4C[C@H]5O[C@]56[C@@H](O)C=CC(=O)[C@]6(C)[C@H]4CC[C@]23C)C1`, the T/C reads like this: (dose: 0.25 mg/kg/injection, vehicle: saline + alcohol) 122 % of control; (dose: 0.25 mg/kg/injection, vehicle: saline) 107 % of control; (dose: 0.5 mg/kg/injection, vehicle: saline + alcohol) 117 % of control; (dose: 0.5 mg/kg/injection, vehicle: saline) 116 % of control; (dose: 1.0 mg/kg/injection, vehicle: saline + alcohol) 122 % of control; (dose: 1.0 mg/kg/injection, vehicle: saline) 115 % of control and 124 % of control. The T/C (dose: 2.0 mg/kg/injection, vehicle: saline) was 115 % of control; the T/C (dose: 4.0 mg/kg/injection, vehicle: saline + alcohol) is 150 % of control; the T/C (dose: 16.0 mg/kg/injection, vehicle: saline) is 152 % of control and 171 % of control; the T/C (dose: 16.0 mg/kg/injection, vehicle: suspension in saline) is 170 % of control.
As for `Clc1cc(Cl)nc(N2CC2)n1`, the T/C runs as follows: under setting [1], 108 % of control; under setting [2], 102 % of control; under setting [3], 106 % of control.
With `Nc1nc(-c2cccc(S(=O)(=O)O)c2)c(Br)c(=O)[nH]1`, the T/C (dose: 100.0 mg/kg/injection, vehicle: saline with Tween-80) was 118 % of control and the T/C (dose: 200.0 mg/kg/injection, vehicle: saline with Tween-80) is 122 % of control.
For `NCCCNCCCCNC(=O)C(O)NC(=O)CC(O)CCCCN=C(N)N` (stereo not drawn), the T/C is, setting by setting: (dose: 6.25 mg/kg/injection, vehicle: saline) 101 % of control; (dose: 12.5 mg/kg/injection, vehicle: saline) 99 % of control; under setting [4], 98 % of control and 101 % of control; under setting [5], 99 % of control and 101 % of control; under setting [6], 111 % of control and 107 % of control.
As for `O=[N+]([O-])c1ccc(N(CCO)CCO)c2c1no[n+]2[O-]`, the T/C runs as follows: under setting [9], 102 % of control; under setting [10], 114 % of control; under setting [11], 102 % of control.
As to `CN1CCN(CN2C(=O)C3C4C=CC(C3C2=O)C2C3C(=O)N(CN5CCN(C)CC5)C(=O)C3C42)CC1` (stereo not drawn), the T/C reads like this: (dose: 16.1 mg/kg/injection, vehicle: water) 103 % of control; (dose: 21.6 mg/kg/injection, vehicle: water) 104 % of control; (dose: 26.8 mg/kg/injection, vehicle: water) 98 % of control; (dose: 36.0 mg/kg/injection, vehicle: water) 102 % of control; (dose: 44.7 mg/kg/injection, vehicle: water) 107 % of control; (dose: 60.0 mg/kg/injection, vehicle: water) 104 % of control. For the same compound, the T/C runs as follows: (dose: 74.5 mg/kg/injection, vehicle: water) 103 % of control; (dose: 100.0 mg/kg/injection, vehicle: water) 120 % of control.
With `CCCCCCCC(=O)[O][Hg][CH2]C1COC([CH2][Hg][O]C(=O)CCCCCCC)CO1` (stereo not drawn), the T/C runs as follows: (dose: 1.56 mg/kg/injection, vehicle: saline with Tween-80) 95 % of control and 102 % of control; (dose: 3.12 mg/kg/injection, vehicle: saline with Tween-80) 96 % of control and 103 % of control; under setting [9], 94 % of control and 101 % of control; under setting [10], 93 % of control and 97 % of control; under setting [11], 91 % of control.
Take `CN(C)CCCN1c2ccccc2Sc2ccc(Cl)cc21`: the T/C was 92 % of control (dose: 4.68 mg/kg/injection, vehicle: saline); 104 % of control (dose: 9.37 mg/kg/injection, vehicle: saline); 105 % of control (dose: 18.75 mg/kg/injection, vehicle: saline).
Turning to `COP12(OCCO1)SC(C(F)(F)F)=C(C(F)(F)F)S2`, the T/C under setting [10] was 100 % of control, the T/C under setting [11] is 96 % of control and the T/C under setting [12] is 104 % of control.
For the compound `O=c1ncccn1[C@@H]1O[C@H](CO)[C@H](O)C1O` (stereo partly drawn), the T/C was 122 % of control under setting [4]; 116 % of control and 107 % of control under setting [5]; 122 % of control under setting [6]; 120 % of control and 122 % of control under setting [7]; 180 % of control under setting [8].
For `CCCC(NC(=O)OCc1ccccc1)C(=O)NC(CC(C)C)C(=O)O` (stereo not drawn) (Cbz-[Nva]-Leu-OH; configuration not given here), the T/C is, setting by setting: (dose: 100.0 mg/kg/injection, vehicle: Klucel (hydroxypropylcellulose) (HPC)) 104 % of control; (dose: 200.0 mg/kg/injection, vehicle: Klucel (hydroxypropylcellulose) (HPC)) 104 % of control; (dose: 400.0 mg/kg/injection, vehicle: Klucel (hydroxypropylcellulose) (HPC)) 96 % of control.
As for `NC(=O)/C=C/C(N)=O`, the T/C runs as follows: under setting [10], 113 % of control; under setting [11], 109 % of control; under setting [12], 89 % of control.
As for `Clc1ccccc1N1CCN(CCCN2CCN(c3ccccc3Cl)CC2)CC1`, the T/C is 100 % of control (dose: 3.13 mg/kg/injection, vehicle: saline with Tween-80); 95 % of control under setting [9]; 94 % of control under setting [10]; 99 % of control under setting [11].
